The target of assay [1] is GDP-bound HRAS wild-type protein (Homo sapiens, UniProt P01112). Briefly: Binding to HRAS by surface plasmon resonance (SPR), Single Cycle Kinetics. Conditions: ratio of KD for GDP-bound HRAS wild-type protein to KD for KRAS, SPR. A general note: SPR reads the build-up and loss of mass on a sensor chip optically.
The test system of assay [2] is human lung cancer strain NCI-H441. Briefly: cells. Conditions: NCI-H441, 96 h, read-out: NCI-H441 IC50 (nM), NCI-H441 cell proliferation, 4 days, CellTiter-Glo. A general note: Cellular ATP, detected with luciferase, serves as a proxy for viable cell number.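 Note: cell proliferation inhibition after four days measured by CellTiter-Glo.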
Assay [3] deals with GDP-bound KRAS wild-type protein (Homo sapiens, UniProt P01116). Nature of the assay: Binding to KRAS by surface plasmon resonance (SPR), Single Cycle Kinetics. Conditions: SPR, Single Cycle Kinetics, GDP-bound KRAS wild-type protein; read-out: KRAS KD.
GDP-bound KRAS wild-type protein, sequence (P01116 whole entry): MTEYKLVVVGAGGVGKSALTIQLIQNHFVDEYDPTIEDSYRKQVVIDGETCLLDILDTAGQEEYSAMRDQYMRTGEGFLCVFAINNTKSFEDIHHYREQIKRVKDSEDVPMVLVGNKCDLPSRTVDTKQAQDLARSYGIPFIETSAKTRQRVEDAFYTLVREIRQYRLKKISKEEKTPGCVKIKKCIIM
Assay [4] addresses GDP-bound NRAS wild-type protein (Homo sapiens, UniProt P01111). Nature of the assay: Binding to NRAS by surface plasmon resonance (SPR), Single Cycle Kinetics. As to conditions: ratio of KD for GDP-bound NRAS wild-type protein to KD for KRAS, SPR.

Usually Kd stands for a measure of binding affinity in units of concentration.

GDP-bound HRAS wild-type protein, sequence (P01112 whole entry): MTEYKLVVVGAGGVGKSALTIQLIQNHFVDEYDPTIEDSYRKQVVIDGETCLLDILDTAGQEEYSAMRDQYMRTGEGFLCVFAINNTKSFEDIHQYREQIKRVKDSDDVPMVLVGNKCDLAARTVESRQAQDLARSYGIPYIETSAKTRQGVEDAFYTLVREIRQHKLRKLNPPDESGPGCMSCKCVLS
GDP-bound NRAS wild-type protein, sequence (P01111 whole entry): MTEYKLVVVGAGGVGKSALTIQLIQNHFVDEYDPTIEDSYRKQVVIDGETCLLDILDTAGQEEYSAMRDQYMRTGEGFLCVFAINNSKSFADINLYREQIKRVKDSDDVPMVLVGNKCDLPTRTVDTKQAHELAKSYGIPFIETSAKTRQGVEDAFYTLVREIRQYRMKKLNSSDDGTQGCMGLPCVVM

Consider `CCCN(C)C(=O)[C@@H]1CC(=O)N(C)[C@@H](CC)C(=O)N[C@@H]([C@@H](C)CC)C(=O)N(C)CC(=O)N(C)[C@H]2C/C=C\CCN(C2=O)[C@@H](Cc2ccc(C(F)(F)F)cc2)C(=O)N(C)CC(=O)N[C@@H](CCc2cc(F)c(C(F)(F)F)c(F)c2)C(=O)N2C[C@H](OCC)C[C@H]2C(=O)NC2(CCC2)C(=O)N(C)[C@@H](C2CCCC2)C(=O)N1C` [PP1699], for which the “HRAS/KRAS (KD ratio)” value in assay [1] was “A (a compound having 10 or more and less than 20 is denoted as A)”. Further, the IC50 in assay [2] is 2.5 nM. In addition, the Kd in assay [3] came out at 0.095 nM. In addition, the “NRAS/KRAS (KD ratio)” value in assay [4] is “A (a compound having 10 or more and less than 20 is denoted as A)”.

In the case of `CCCN(C)C(=O)[C@@H]1CC(=O)N(C)[C@@H](CC(F)F)C(=O)N[C@@H]([C@@H](C)CC)C(=O)N(C)CC(=O)N(C)[C@H]2C/C=C\CCN(C2=O)[C@@H](Cc2ccc(C(F)(F)F)cc2)C(=O)N(C)CC(=O)N[C@@H](CCc2cc(F)c(C(F)(F)F)c(F)c2)C(=O)N2C[C@H](OCC)C[C@H]2C(=O)NC2(CCC2)C(=O)N(C)[C@@H](C2CCCC2)C(=O)N1C` [PP1700], the “HRAS/KRAS (KD ratio)” value in assay [1] was “A (a compound having 10 or more and less than 20 is denoted as A)”. The IC50 in assay [2] is 3.6 nM. The Kd in assay [3] is 0.11 nM. Besides, the “NRAS/KRAS (KD ratio)” value in assay [4] is “A (a compound having 10 or more and less than 20 is denoted as A)”.

As to `CCCN(C)C(=O)[C@@H]1CC(=O)N(C)[C@@H](CC(F)(F)F)C(=O)N[C@@H]([C@@H](C)CC)C(=O)N(C)CC(=O)N(C)[C@H]2C/C=C\CCN(C2=O)[C@@H](Cc2ccc(C(F)(F)F)cc2)C(=O)N(C)CC(=O)N[C@@H](CCc2cc(F)c(C(F)(F)F)c(F)c2)C(=O)N2C[C@H](OCC)C[C@H]2C(=O)NC2(CCC2)C(=O)N(C)[C@@H](C2CCCC2)C(=O)N1C` [PP1702], the “HRAS/KRAS (KD ratio)” value in assay [1] was “A (a compound having 10 or more and less than 20 is denoted as A)”. Further, the IC50 in assay [2] was found to be 4.9 nM. Also, the Kd in assay [3] was 0.085 nM. In addition, the “NRAS/KRAS (KD ratio)” value in assay [4] was “A (a compound having 10 or more and less than 20 is denoted as A)”.

Regarding `C#CC[C@H]1C(=O)N[C@@H]([C@@H](C)CC)C(=O)N(C)CC(=O)N(C)[C@H]2C/C=C\CCN(C2=O)[C@@H](Cc2ccc(C(F)(F)F)cc2)C(=O)N(C)CC(=O)N[C@@H](CCc2cc(F)c(C(F)(F)F)c(F)c2)C(=O)N2C[C@H](OCC)C[C@H]2C(=O)NC2(CCC2)C(=O)N(C)[C@@H](C2CCCC2)C(=O)N(C)[C@H](C(=O)N(C)CCC)CC(=O)N1C` [PP1703], in assay [1], the “HRAS/KRAS (KD ratio)” value is “A (a compound having 10 or more and less than 20 is denoted as A)”. In assay [2], the IC50 stood at 7.2 nM. The Kd in assay [3] came out at 0.13 nM. Moreover, in assay [4], the “NRAS/KRAS (KD ratio)” value was “A (a compound having 10 or more and less than 20 is denoted as A)”.

As for `CCCC[C@H]1C(=O)N[C@@H]([C@@H](C)CC)C(=O)N(C)CC(=O)N(C)[C@H]2C/C=C\CCN(C2=O)[C@@H](Cc2ccc(C(F)(F)F)cc2)C(=O)N(C)CC(=O)N[C@@H](CCc2cc(F)c(C(F)(F)F)c(F)c2)C(=O)N2C[C@H](OCC)C[C@H]2C(=O)NC2(CCC2)C(=O)N(C)[C@@H](C2CCCC2)C(=O)N(C)[C@H](C(=O)N(C)CCC)CC(=O)N1C` [PP1704], the “HRAS/KRAS (KD ratio)” value in assay [1] was “A (a compound having 10 or more and less than 20 is denoted as A)”. For the same compound, in assay [2], the IC50 was determined as 10.3 nM. Moreover, in assay [3], the Kd came out at 0.14 nM. In addition, the “NRAS/KRAS (KD ratio)” value in assay [4] is “A (a compound having 10 or more and less than 20 is denoted as A)”.

In the case of `CCCN(C)C(=O)[C@@H]1CC(=O)N(C)[C@@H](CC2CCC2)C(=O)N[C@@H]([C@@H](C)CC)C(=O)N(C)CC(=O)N(C)[C@H]2C/C=C\CCN(C2=O)[C@@H](Cc2ccc(C(F)(F)F)cc2)C(=O)N(C)CC(=O)N[C@@H](CCc2cc(F)c(C(F)(F)F)c(F)c2)C(=O)N2C[C@H](OCC)C[C@H]2C(=O)NC2(CCC2)C(=O)N(C)[C@@H](C2CCCC2)C(=O)N1C` [PP1705], the “HRAS/KRAS (KD ratio)” value in assay [1] was “A (a compound having 10 or more and less than 20 is denoted as A)”. Further, the IC50 in assay [2] was 8 nM. Moreover, in assay [3], the Kd stood at 0.14 nM. Further, the “NRAS/KRAS (KD ratio)” value in assay [4] is reported as “AA (a compound having 20 or more is denoted as AA)”.

On to `CCCN(C)C(=O)[C@@H]1CC(=O)N(C)[C@@H](COC)C(=O)N[C@@H]([C@@H](C)CC)C(=O)N(C)CC(=O)N(C)[C@H]2C/C=C\CCN(C2=O)[C@@H](Cc2ccc(C(F)(F)F)cc2)C(=O)N(C)CC(=O)N[C@@H](CCc2cc(F)c(C(F)(F)F)c(F)c2)C(=O)N2C[C@H](OCC)C[C@H]2C(=O)NC2(CCC2)C(=O)N(C)[C@@H](C2CCCC2)C(=O)N1C` [PP1706], for which the “HRAS/KRAS (KD ratio)” value in assay [1] is “A (a compound having 10 or more and less than 20 is denoted as A)”. Also, the IC50 in assay [2] came to 6.7 nM. Also, the Kd in assay [3] stood at 0.075 nM. Besides, in assay [4], the “NRAS/KRAS (KD ratio)” value was “A (a compound having 10 or more and less than 20 is denoted as A)”.

For `CC[C@H](C)[C@@H]1NC(=O)[C@H](C)N(C)C(=O)C[C@@H](C(=O)N(C)C)N(C)C(=O)[C@H](C2CCCC2)N(C)C(=O)C2(CC(C)(C)C2)NC(=O)[C@@H]2CC(F)(F)CN2C(=O)[C@H](CCc2cc(F)c(C(F)(F)F)c(F)c2)NC(=O)CN(C)C(=O)[C@H](Cc2ccc(C(F)(F)F)cc2)N2CC/C=C\C[C@@H](C2=O)N(C)C(=O)CN(C)C1=O` [PP1707], the “HRAS/KRAS (KD ratio)” value in assay [1] is “A (a compound having 10 or more and less than 20 is denoted as A)”. Besides, the IC50 in assay [2] came to 7.4 nM. Also, in assay [3], the Kd was found to be 0.037 nM. Besides, in assay [4], the “NRAS/KRAS (KD ratio)” value is reported as “AA (a compound having 20 or more is denoted as AA)”.

Take `CC[C@H](C)[C@@H]1NC(=O)[C@H](CC(F)F)N(C)C(=O)C[C@@H](C(=O)N(C)C)N(C)C(=O)[C@H](C2CCCC2)N(C)C(=O)C2(CC(C)(C)C2)NC(=O)[C@@H]2CC(F)(F)CN2C(=O)[C@H](CCc2cc(F)c(C(F)(F)F)c(F)c2)NC(=O)CN(C)C(=O)[C@H](Cc2ccc(C(F)(F)F)cc2)N2CC/C=C\C[C@@H](C2=O)N(C)C(=O)CN(C)C1=O` [PP1709]: in assay [1], the “HRAS/KRAS (KD ratio)” value is “A (a compound having 10 or more and less than 20 is denoted as A)”. For the same compound, in assay [2], the IC50 worked out at 3.8 nM. Further, the Kd in assay [3] is 0.058 nM. Besides, the “NRAS/KRAS (KD ratio)” value in assay [4] was “A (a compound having 10 or more and less than 20 is denoted as A)”.

With `CC[C@H](C)[C@@H]1NC(=O)[C@H](CC(F)(F)F)N(C)C(=O)C[C@@H](C(=O)N(C)C)N(C)C(=O)[C@H](C2CCCC2)N(C)C(=O)C2(CC(C)(C)C2)NC(=O)[C@@H]2CC(F)(F)CN2C(=O)[C@H](CCc2cc(F)c(C(F)(F)F)c(F)c2)NC(=O)CN(C)C(=O)[C@H](Cc2ccc(C(F)(F)F)cc2)N2CC/C=C\C[C@@H](C2=O)N(C)C(=O)CN(C)C1=O` [PP1710], the “HRAS/KRAS (KD ratio)” value in assay [1] was “B (a compound having 3 or more and less than 10 is denoted as B)”. Also, the IC50 in assay [2] turned out to be 4.1 nM. Moreover, the Kd in assay [3] stood at 0.1 nM. In assay [4], the “NRAS/KRAS (KD ratio)” value was “A (a compound having 10 or more and less than 20 is denoted as A)”.

With `CCC[C@H]1C(=O)N[C@@H]([C@@H](C)CC)C(=O)N(C)CC(=O)N(C)[C@H]2C/C=C\CCN(C2=O)[C@@H](Cc2ccc(C(F)(F)F)cc2)C(=O)N(C)CC(=O)N[C@@H](CCc2cc(F)c(C(F)(F)F)c(F)c2)C(=O)N2CC(F)(F)C[C@H]2C(=O)NC2(CC(C)(C)C2)C(=O)N(C)[C@@H](C2CCCC2)C(=O)N(C)[C@H](C(=O)N(C)C)CC(=O)N1C` [PP1711], in assay [1], the “HRAS/KRAS (KD ratio)” value is “B (a compound having 3 or more and less than 10 is denoted as B)”. In addition, in assay [2], the IC50 amounted to 5 nM. In assay [3], the Kd was 0.093 nM. Besides, in assay [4], the “NRAS/KRAS (KD ratio)” value is “A (a compound having 10 or more and less than 20 is denoted as A)”.

Take `CC[C@H](C)[C@@H]1NC(=O)[C@H](CC2CC2)N(C)C(=O)C[C@@H](C(=O)N(C)C)N(C)C(=O)[C@H](C2CCCC2)N(C)C(=O)C2(CC(C)(C)C2)NC(=O)[C@@H]2CC(F)(F)CN2C(=O)[C@H](CCc2cc(F)c(C(F)(F)F)c(F)c2)NC(=O)CN(C)C(=O)[C@H](Cc2ccc(C(F)(F)F)cc2)N2CC/C=C\C[C@@H](C2=O)N(C)C(=O)CN(C)C1=O` [PP1713]: the “HRAS/KRAS (KD ratio)” value in assay [1] is “A (a compound having 10 or more and less than 20 is denoted as A)”. Besides, the IC50 in assay [2] was 7.9 nM. The Kd in assay [3] worked out at 0.096 nM. Moreover, the “NRAS/KRAS (KD ratio)” value in assay [4] was “A (a compound having 10 or more and less than 20 is denoted as A)”.

On to `CCCC[C@H]1C(=O)N[C@@H]([C@@H](C)CC)C(=O)N(C)CC(=O)N(C)[C@H]2C/C=C\CCN(C2=O)[C@@H](Cc2ccc(C(F)(F)F)cc2)C(=O)N(C)CC(=O)N[C@@H](CCc2cc(F)c(C(F)(F)F)c(F)c2)C(=O)N2CC(F)(F)C[C@H]2C(=O)NC2(CC(C)(C)C2)C(=O)N(C)[C@@H](C2CCCC2)C(=O)N(C)[C@H](C(=O)N(C)C)CC(=O)N1C` [PP1714], for which the “HRAS/KRAS (KD ratio)” value in assay [1] is “A (a compound having 10 or more and less than 20 is denoted as A)”. Besides, the IC50 in assay [2] is 4.3 nM. The Kd in assay [3] worked out at 0.1 nM. In addition, the “NRAS/KRAS (KD ratio)” value in assay [4] was “A (a compound having 10 or more and less than 20 is denoted as A)”.

On to `CC[C@H](C)[C@@H]1NC(=O)[C@H](CC(C)C)N(C)C(=O)C[C@@H](C(=O)N(C)C)N(C)C(=O)[C@H](C2CCCC2)N(C)C(=O)C2(CC(C)(C)C2)NC(=O)[C@@H]2CC(F)(F)CN2C(=O)[C@H](CCc2cc(F)c(C(F)(F)F)c(F)c2)NC(=O)CN(C)C(=O)[C@H](Cc2ccc(C(F)(F)F)cc2)N2CC/C=C\C[C@@H](C2=O)N(C)C(=O)CN(C)C1=O` [PP1715], for which, in assay [1], the “HRAS/KRAS (KD ratio)” value is “A (a compound having 10 or more and less than 20 is denoted as A)”. Moreover, the IC50 in assay [2] was 2.7 nM. Moreover, in assay [3], the Kd was determined as 0.061 nM. In assay [4], the “NRAS/KRAS (KD ratio)” value is “AA (a compound having 20 or more is denoted as AA)”.

The record behind these values is US20240158446A1, “CYCLIC COMPOUND HAVING SELECTIVE INHIBITORY ACTION ON KRAS OVER HRAS AND NRAS” (CHUGAI SEIYAKU KABUSHIKI KAISHA, priority 2021, published 2024).
